molecular target: MMP13 (Homo sapiens (Human), UniProt P45452); experiment: EnzoLyte 520 Generic MMP Assay Kit, 5-FAM/QXL 520 FRET peptide substrate; assay type: biochemical
Source text: The EnzoLyte™ 520 Generic MMP Assay Kit (AnaSpec Inc.) can detect the activity of several MMPs including MMP-1, 2, 3, 7, 8, 9, 13, and 14. This kit uses a 5-FAM/QXL™ 520 fluorescence resonance energy transfer (FRET) peptide as an MMP substrate. In the intact FRET peptide, the fluorescence of 5-FAM is quenched by QXL™ 520. Upon cleavage into two separate fragments by MMPs, the fluorescence of 5-FAM is recovered, and can be monitored at excitation/emission wavelengths=490 nm/520 nm. The assays are performed in a convenient 96-well or 384-well microplate format.

Row | IC50 | SMILES
1 | 10 nM | Cc1noc(-c2cc3cc(-c4nc(C(N)=O)[nH]c4C)ccc3[nH]2)n1 [5-methyl-4-[2-(3-methyl-1,2,4-oxadiazol-5-yl)-1H-indol-5-yl]-1H-imidazole-2-carboxamide]
2 | 185 nM | Cc1noc(-c2cc3cc(-c4cc(C(=O)NCc5ccn(C)n5)nn4C)ccc3[nH]2)n1 [1-methyl-5-[2-(3-methyl-1,2,4-oxadiazol-5-yl)-1H-indol-5-yl]-N-[(1-methyl-1H-pyrazol-3-yl)methyl]-1H-pyrazole-3-carboxamide]
3 | 0.6 nM | Cc1noc(-c2cc3cc(-c4nc(C(=O)NCc5ccncn5)[nH]c4C)ccc3[nH]2)n1
4 | 26 nM | Cc1noc(-c2cc3cc(-c4cc(C(=O)NCc5ccccc5)nn4C)ccc3[nH]2)n1 [N-benzyl-1-methyl-5-[2-(3-methyl-1,2,4-oxadiazol-5-yl)-1H-indol-5-yl]-1H-pyrazole-3-carboxamide]
5 | 2 nM | Cc1noc(-c2cc3cc(-c4nc(C(=O)NCc5ccc(N)nc5)[nH]c4C)ccc3[nH]2)n1
6 | 130 nM | Cc1cc(Cn2cc(-c3ccnc(C(=O)NCc4ccc(C(=O)O)cc4)c3)cn2)ccc1F
7 | 49 nM | CCOC(=O)c1cc2cc(-c3nc(C(=O)NCc4ccncc4)[nH]c3C)cnc2[nH]1
8 | 0.2 nM | Cc1noc(-c2cc3cc(-c4nc(C(=O)NCc5ccc(C(=O)O)cc5)[nH]c4C)ccc3[nH]2)n1
9 | 62 nM | O=C(NCc1ccncc1)c1cc(-c2ccc3[nH]c(-c4ccncc4)cc3c2)ccn1 [4-(2-Pyridin-4-yl-1H-indol-5-yl)-pyridine-2-carboxylic acid (pyridin-4-ylmethyl)-amide]
10 | 0.4 nM | Cc1noc(-c2cc3cc(-c4nc(C(=O)NCc5cnn(C)c5)[nH]c4C)ccc3[nH]2)n1 [5-methyl-4-[2-(3-methyl-1,2,4-oxadiazol-5-yl)-1H-indol-5-yl]-N-[(1-methyl-1H-pyrazol-4-yl)methyl]-1H-imidazole-2-carboxamide]
11 | 4 nM | Cc1noc(-c2cc3cc(-c4nc(C(=O)NC[C@@H]5CCCO5)[nH]c4C)ccc3[nH]2)n1 [5-methyl-4-[2-(3-methyl-1,2,4-oxadiazol-5-yl)-1H-indol-5-yl]-N-[(2S)-tetrahydrofuran-2-ylmethyl]-1H-imidazole-2-carboxamide]
12 | 2 nM | Cc1noc(-c2cc3cc(-c4nc(C(=O)NCc5ccccc5)[nH]c4C)ccc3[nH]2)n1 [N-benzyl-5-methyl-4-[2-(3-methyl-1,2,4-oxadiazol-5-yl)-1H-indol-5-yl]-1H-imidazole-2-carboxamide]
13 | 27 nM | Cc1noc(-c2cc3cc(-c4cc(C(=O)NCc5ccco5)nn4C)ccc3[nH]2)n1
14 | 51 nM | CCOC(=O)c1cc2cc(-c3cc(C(=O)NCc4ccc(CC(=O)OC)cc4)nn3C)ccc2[nH]1
15 | 35 nM | CCOC(=O)c1cc2cc(-c3ccnc(C(=O)NCc4ccc(=O)[nH]c4)c3)ccc2[nH]1
16 | 4 nM | Cc1noc(-c2cc3cc(-c4nc(C(=O)NCc5nnc6n5CCC6)[nH]c4C)ccc3[nH]2)n1
17 | 20 nM | Cc1noc(-c2cc3nc(-c4nc(C(=O)NCc5ccncc5)[nH]c4C)ccc3[nH]2)n1
18 | 7 nM | CCOC(=O)c1[nH]c2ccc(-c3nc(C(=O)NCc4ccncc4)[nH]c3C)cc2c1F
19 | 6 nM | Cc1noc(-c2cc3cc(-c4nc(C(=O)NCC5(O)CCOCC5)[nH]c4C)ccc3[nH]2)n1
20 | 0.2 nM | Cc1noc(-c2cc3cc(-c4ccnc(C(=O)NCc5ccc(C(=O)O)cc5)c4)ccc3[nH]2)n1
21 | 0.9 nM | Cc1noc(-c2cc3cc(-c4nc(C(=O)NCc5cc(C)on5)[nH]c4C)ccc3[nH]2)n1 [5-methyl-N-[(5-methylisoxazol-3-yl)methyl]-4-[2-(3-methyl-1,2,4-oxadiazol-5-yl)-1H-indol-5-yl]-1H-imidazole-2-carboxamide]
22 | 5 nM | Cc1noc(-c2cc3cc(-c4nc(C(=O)NC[C@H]5CCCO5)[nH]c4C)ccc3[nH]2)n1 [5-methyl-4-[2-(3-methyl-1,2,4-oxadiazol-5-yl)-1H-indol-5-yl]-N-[(2R)-tetrahydrofuran-2-ylmethyl]-1H-imidazole-2-carboxamide]
23 | 10 nM | CCNC(=O)c1nc(-c2ccc3[nH]c(-c4nc(C)no4)cc3c2)c(C)[nH]1
24 | 94 nM | Cc1noc(-c2cc3cc(-c4cc(C(=O)NCc5cscn5)nn4C)ccc3[nH]2)n1 [1-methyl-5-[2-(3-methyl-1,2,4-oxadiazol-5-yl)-1H-indol-5-yl]-N-(1,3-thiazol-4-ylmethyl)-1H-pyrazole-3-carboxamide]
25 | 6 nM | Cc1noc(-c2cc3cc(-c4nc(C(=O)NCc5nnc[nH]5)[nH]c4C)ccc3[nH]2)n1
26 | 3 nM | Cc1noc(-c2cc3cc(-c4nc(C(=O)NCC5CCCO5)[nH]c4C)ccc3[nH]2)n1 (stereo not drawn) [5-methyl-4-[2-(3-methyl-1,2,4-oxadiazol-5-yl)-1H-indol-5-yl]-N-(tetrahydrofuran-2-ylmethyl)-1H-imidazole-2-carboxamide]
27 | 0.7 nM | Cc1noc(-c2cc3cc(-c4nc(C(=O)NCc5ccno5)[nH]c4C)ccc3[nH]2)n1 [N-(isoxazol-5-ylmethyl)-5-methyl-4-[2-(3-methyl-1,2,4-oxadiazol-5-yl)-1H-indol-5-yl]-1H-imidazole-2-carboxamide]
28 | 4 nM | Cc1noc(-c2cc3cc(-c4cc(C(=O)NCc5ccncc5)nn4C)ccc3[nH]2)n1
29 | 30 nM | Cc1cc(-c2cc3cc(-c4cc(C(=O)NCc5ccc(C(=O)O)cc5)nn4C)ccc3[nH]2)ccc1F
30 | 52 nM | Cn1nc(C(=O)NCc2ccc(C(=O)O)cc2)cc1-c1ccc2[nH]c(C#N)cc2c1
